ChEMBL document CHEMBL3886728, “Dihydrobenzoxazine and tetrahydroquinoxaline sodium channel inhibitors” (2016)
pIC50: −log10 of the molar value.

Legend:
[1] = molecular target: T1, Sodium channel protein type 9 subunit alpha (Homo sapiens, UniProt Q15858); test: In Vitro Assay: HEK 293 cells stably transfected with either Nav 1.7 or with Nav 1.5 were recorded in population patch-clamp mode with the IonWorks® Quattro automated electrophysiology system in accordance with the manufacturer's specifications (Molecular Devices, LLC, Sunnyvale, Calif.). Sodium channel currents were measured in response to a train of depolarizations that induced successively greater inactivation. Cells were held at −110 mV for three seconds (Nav 1.7) or half a second (Nav 1.5) from a holding voltage of −15 mV, then put through a series of 26 pulses of 150 msec duration to −20 mV at a frequency of 5 Hz. Cells were then left unclamped for a period of 3 to 8 minutes while a single concentration of test compound was added. Cells were then reclamped and put through the same voltage protocol. Current at the end of the 26th pulse to −20 mV was subtracted from the peak current evoked by the 26th pulse to −20 mV to correct for leak current.; type: cell-based
T1 sequence (Q15858 whole entry): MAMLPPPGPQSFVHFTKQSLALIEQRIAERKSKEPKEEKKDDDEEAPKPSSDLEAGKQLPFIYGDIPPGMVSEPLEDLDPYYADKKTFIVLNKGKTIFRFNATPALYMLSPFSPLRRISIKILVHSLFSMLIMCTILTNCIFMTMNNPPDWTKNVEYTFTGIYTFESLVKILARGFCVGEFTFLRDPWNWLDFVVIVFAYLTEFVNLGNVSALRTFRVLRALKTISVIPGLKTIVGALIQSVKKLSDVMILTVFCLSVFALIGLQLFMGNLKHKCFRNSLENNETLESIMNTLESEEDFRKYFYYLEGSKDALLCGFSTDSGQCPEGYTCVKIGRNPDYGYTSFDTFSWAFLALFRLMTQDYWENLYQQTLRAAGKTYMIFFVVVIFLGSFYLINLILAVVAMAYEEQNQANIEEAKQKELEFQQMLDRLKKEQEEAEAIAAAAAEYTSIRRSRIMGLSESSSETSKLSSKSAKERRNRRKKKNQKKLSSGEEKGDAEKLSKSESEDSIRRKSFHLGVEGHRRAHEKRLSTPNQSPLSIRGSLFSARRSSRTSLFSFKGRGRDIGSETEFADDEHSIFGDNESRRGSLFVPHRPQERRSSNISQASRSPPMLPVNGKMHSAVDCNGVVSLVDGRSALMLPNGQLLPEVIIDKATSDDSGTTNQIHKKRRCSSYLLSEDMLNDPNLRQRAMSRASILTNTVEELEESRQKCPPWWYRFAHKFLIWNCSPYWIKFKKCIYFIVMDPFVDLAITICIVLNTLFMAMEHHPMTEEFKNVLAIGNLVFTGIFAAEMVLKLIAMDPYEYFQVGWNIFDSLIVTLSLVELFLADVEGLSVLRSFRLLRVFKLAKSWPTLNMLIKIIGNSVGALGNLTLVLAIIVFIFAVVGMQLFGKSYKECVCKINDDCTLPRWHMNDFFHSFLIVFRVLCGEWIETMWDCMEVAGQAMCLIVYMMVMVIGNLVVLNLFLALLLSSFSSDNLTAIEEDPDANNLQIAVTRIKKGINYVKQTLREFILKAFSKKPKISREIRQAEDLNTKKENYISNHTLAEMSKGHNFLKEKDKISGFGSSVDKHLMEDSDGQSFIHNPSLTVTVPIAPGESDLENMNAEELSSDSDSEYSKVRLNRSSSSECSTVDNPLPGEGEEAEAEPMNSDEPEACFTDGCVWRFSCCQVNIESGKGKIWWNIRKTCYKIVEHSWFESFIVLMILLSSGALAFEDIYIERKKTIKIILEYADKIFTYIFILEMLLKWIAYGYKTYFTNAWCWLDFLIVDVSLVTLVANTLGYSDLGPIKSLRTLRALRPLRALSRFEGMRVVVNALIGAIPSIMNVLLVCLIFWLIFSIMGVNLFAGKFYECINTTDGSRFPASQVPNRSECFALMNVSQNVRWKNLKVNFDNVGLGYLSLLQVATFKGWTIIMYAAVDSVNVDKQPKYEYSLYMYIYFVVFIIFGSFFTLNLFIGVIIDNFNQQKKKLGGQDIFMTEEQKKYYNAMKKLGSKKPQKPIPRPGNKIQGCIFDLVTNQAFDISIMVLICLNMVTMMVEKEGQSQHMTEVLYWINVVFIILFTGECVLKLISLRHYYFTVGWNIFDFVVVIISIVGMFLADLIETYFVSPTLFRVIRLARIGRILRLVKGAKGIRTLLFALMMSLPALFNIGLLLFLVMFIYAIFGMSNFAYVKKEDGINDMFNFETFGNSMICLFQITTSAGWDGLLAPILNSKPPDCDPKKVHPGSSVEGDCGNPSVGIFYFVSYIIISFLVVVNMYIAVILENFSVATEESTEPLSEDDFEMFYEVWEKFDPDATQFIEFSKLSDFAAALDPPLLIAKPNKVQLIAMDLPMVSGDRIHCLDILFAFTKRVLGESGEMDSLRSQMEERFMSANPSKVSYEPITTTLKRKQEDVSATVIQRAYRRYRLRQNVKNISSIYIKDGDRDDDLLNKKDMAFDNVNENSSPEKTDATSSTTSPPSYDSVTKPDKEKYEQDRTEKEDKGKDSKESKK

[2] = molecular target: T1, Sodium channel protein type 9 subunit alpha; test: In Vitro PX Assay: HEK 293 cells stably transfected with human Nav1.7 were recorded in whole cell voltage clamp mode with the PatchXpress automated electrophysiology system (Molecular Devices, LLC, Sunnyvale, Calif.). Compound effects were measured on a partially inactivated state of the sodium channel. Cells were clamped to a holding potential yielding 20 to 50% inactivation. To elicit sodium current, channels were activated by pulsing to −10 mV for 20 msec. This voltage protocol was repeated at a rate of 0.1 Hz throughout the experiment. A single concentration of test compound was applied to cells for a duration of 3 minutes.; type: cell-based

Row | SMILES | pIC50 [1] | pIC50 [2]
1 | CCOc1cccc(N2CCOc3cc(S(=O)(=O)Nc4nccs4)ccc32)c1 | 6.13 | 5.55
2 | O=S(=O)(Nc1nccs1)c1ccc2c(c1)OCCN2c1ccccc1C(F)(F)F | 5.78 | 5.10
3 | O=S(=O)(Nc1nccs1)c1ccc2c(c1)OCCN2c1ccc(F)cc1F | 6.72 | 5.74
4 | O=S(=O)(Nc1nccs1)c1ccc2c(c1)OCCN2c1cccc(Cl)c1Cl | 6.56 | 6.02
5 | Cc1c(Cl)cccc1N1CCOc2cc(S(=O)(=O)Nc3nccs3)ccc21 | 6.22 | 6.38
6 | COc1cc(C#N)ccc1N1CCOc2cc(S(=O)(=O)Nc3ccncn3)ccc21 |  | 6.04
7 | CN1CC=C(c2cc(C(F)(F)F)ccc2N2CCOc3cc(S(=O)(=O)Nc4ccncn4)ccc32)CC1 | 8.35 | 6.44
8 | O=C1CCCc2ccc(N3CCOc4cc(S(=O)(=O)Nc5nccs5)ccc43)cc21 | 5.96 | 5.15
9 | COc1ccc(N2CCOc3cc(S(=O)(=O)Nc4nccs4)ccc32)c(C#N)c1 | 5.57 | 4.86
10 | Cc1cc(N2CCOc3cc(S(=O)(=O)Nc4nccs4)ccc32)cc(C)c1N(C)C | 6.09 | 5.63
11 | O=S(=O)(Nc1nccs1)c1ccc2c(c1)OCCN2c1ncc(Cl)cc1Cl | 6.40 | 5.35
12 | CC(C)(C)OC(=O)N1CC=C(c2cc(C(F)(F)F)ccc2N2CCOc3cc(S(=O)(=O)Nc4ncns4)ccc32)CC1 | 7.09 | 6.51
13 | Cc1ccc(N2CCOc3cc(S(=O)(=O)Nc4nccs4)ccc32)cc1F | 5.13 | 
14 | Cc1ccc(N2CCOc3cc(S(=O)(=O)Nc4nccs4)ccc32)cc1Cl | 6.13 | 5.81
15 | O=S(=O)(Nc1nccs1)c1ccc2c(c1)OCCN2c1cccc2scnc12 | 5.42 | 5.24
16 | COc1cccc(N2CCOc3cc(S(=O)(=O)Nc4nccs4)ccc32)c1 | 6.85 | 5.68
17 | O=S(=O)(Nc1nccs1)c1ccc2c(c1)OCCN2c1cc(F)ccc1F | 6.94 | 5.95
18 | N#Cc1ccc(F)c(N2CCOc3cc(S(=O)(=O)Nc4nccs4)ccc32)c1 | 6.14 | 5.50
19 | O=S(=O)(Nc1nccs1)c1ccc2c(c1)OCCN2c1ccc(-n2ccnc2)cc1 | 5.57 | 4.86
